# Results: PubChem BioAssay AID2060904 (Molecular Pharmacology Branch, DTP, NCI, 2025)
# Tested on: 349418-098-R-PDC complex spheroid viability
# Experiment: Anticancer human tumor 349418-098-R-PDC patient-derived lung adenocarcinoma cell line growth inhibition [RAS]
# Settings: for IC50: curve of first compound; for viability, T/C: stronger effect = lower value
# Method in brief: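 Tumour cells grown as complex spheroids with HUVEC endothelial cells and mesenchymal stem cells, treated with RAS pathway inhibitor combinations. Each agent spans half-log steps from near clinical Cmax, or 10 microM where Cmax is unknown.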
# 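Note: spheroids exposed to compound for seven days before viability readout.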
smiles,measurement,setting,value
C=CC(=O)N1CCN(c2nc(OCC3CCCN3C)nc3c(F)c(-c4nc(N)cc(C)c4C(F)(F)F)c(Cl)cc23)C(C)C1 (centres undefined) + CCn1c(-c2cccnc2C(C)OC)c2c3cc(ccc31)N1CCOC(CC(NC(=O)C(C(C)C)N(C)C(=O)C3(F)CCN(C(=O)C#CC(C)(C)N(C)C)CC3)C(=O)N3CCCC(N3)C(=O)OCC(C)(C)C2)C1,IC50,second compound 0.000949 µM,> 1000 nM
same,IC50,second compound 0.003 µM,> 1000 nM
same,IC50,second compound 0.00949 µM,> 1000 nM
same,IC50,second compound 0.03 µM,> 1000 nM
same,IC50,second compound 0.0949 µM,> 1000 nM
same,IC50,second compound 0.3 µM,> 1000 nM
same,"viability, T/C","second compound 0.000949 µM, first compound 0.00316 µM",99%
same,"viability, T/C","second compound 0.000949 µM, first compound 0.01 µM",94%
same,"viability, T/C","second compound 0.000949 µM, first compound 0.0316 µM",111%
same,"viability, T/C","second compound 0.000949 µM, first compound 0.1 µM",106%
same,"viability, T/C","second compound 0.000949 µM, first compound 0.316 µM",116%
same,"viability, T/C","second compound 0.000949 µM, first compound 1 µM",87.4%
same,"viability, T/C","second compound 0.003 µM, first compound 0.00316 µM",112%
same,"viability, T/C","second compound 0.003 µM, first compound 0.01 µM",97.6%
same,"viability, T/C","second compound 0.003 µM, first compound 0.0316 µM",103%
same,"viability, T/C","second compound 0.003 µM, first compound 0.1 µM",92.6%
same,"viability, T/C","second compound 0.003 µM, first compound 0.316 µM",109%
same,"viability, T/C","second compound 0.003 µM, first compound 1 µM",82.8%
same,"viability, T/C","second compound 0.00949 µM, first compound 0.00316 µM",105%
same,"viability, T/C","second compound 0.00949 µM, first compound 0.01 µM",98.3%
same,"viability, T/C","second compound 0.00949 µM, first compound 0.0316 µM",101%
same,"viability, T/C","second compound 0.00949 µM, first compound 0.1 µM",101%
same,"viability, T/C","second compound 0.00949 µM, first compound 0.316 µM",105%
same,"viability, T/C","second compound 0.00949 µM, first compound 1 µM",98.8%
same,"viability, T/C","second compound 0.03 µM, first compound 0.00316 µM",99.3%
same,"viability, T/C","second compound 0.03 µM, first compound 0.01 µM",97.4%
same,"viability, T/C","second compound 0.03 µM, first compound 0.0316 µM",90.2%
same,"viability, T/C","second compound 0.03 µM, first compound 0.1 µM",104%
same,"viability, T/C","second compound 0.03 µM, first compound 0.316 µM",103%
same,"viability, T/C","second compound 0.03 µM, first compound 1 µM",83.3%
same,"viability, T/C","second compound 0.0949 µM, first compound 0.00316 µM",102%
same,"viability, T/C","second compound 0.0949 µM, first compound 0.01 µM",89%
same,"viability, T/C","second compound 0.0949 µM, first compound 0.0316 µM",85.5%
same,"viability, T/C","second compound 0.0949 µM, first compound 0.1 µM",89.7%
same,"viability, T/C","second compound 0.0949 µM, first compound 0.316 µM",100%
same,"viability, T/C","second compound 0.0949 µM, first compound 1 µM",89%
same,"viability, T/C","second compound 0.3 µM, first compound 0.00316 µM",85.4%
same,"viability, T/C","second compound 0.3 µM, first compound 0.01 µM",95.2%
same,"viability, T/C","second compound 0.3 µM, first compound 0.0316 µM",83.8%
same,"viability, T/C","second compound 0.3 µM, first compound 0.1 µM",87.8%
same,"viability, T/C","second compound 0.3 µM, first compound 0.316 µM",101%
same,"viability, T/C","second compound 0.3 µM, first compound 1 µM",80%
CC1(C)CCC(Nc2ncc(C(F)(F)F)c(-c3c[nH]c4c(P(C)(C)=O)c(C#N)ccc34)n2)CN1 (centres undefined) + CCn1c(-c2cccnc2C(C)OC)c2c3cc(ccc31)N1CCOC(CC(NC(=O)C(C(C)C)N(C)C(=O)C3(F)CCN(C(=O)C#CC(C)(C)N(C)C)CC3)C(=O)N3CCCC(N3)C(=O)OCC(C)(C)C2)C1,IC50,second compound 0.000949 µM,< 0.949 nM
same,IC50,second compound 0.003 µM,1.31 nM
same,IC50,second compound 0.00949 µM,< 0.949 nM
same,IC50,second compound 0.03 µM,1.25 nM
same,IC50,second compound 0.0949 µM,1.02 nM
same,IC50,second compound 0.3 µM,1.15 nM
same,"viability, T/C","second compound 0.000949 µM, first compound 0.000949 µM",36.9%
same,"viability, T/C","second compound 0.000949 µM, first compound 0.003 µM",19.5%
same,"viability, T/C","second compound 0.000949 µM, first compound 0.00949 µM",10.7%
same,"viability, T/C","second compound 0.000949 µM, first compound 0.03 µM",8.99%
same,"viability, T/C","second compound 0.000949 µM, first compound 0.0949 µM",8.61%
same,"viability, T/C","second compound 0.000949 µM, first compound 0.3 µM",7.56%
same,"viability, T/C","second compound 0.003 µM, first compound 0.000949 µM",60.5%
same,"viability, T/C","second compound 0.003 µM, first compound 0.003 µM",22.8%
same,"viability, T/C","second compound 0.003 µM, first compound 0.00949 µM",14.4%
same,"viability, T/C","second compound 0.003 µM, first compound 0.03 µM",9.79%
same,"viability, T/C","second compound 0.003 µM, first compound 0.0949 µM",9.1%
same,"viability, T/C","second compound 0.003 µM, first compound 0.3 µM",8.13%
same,"viability, T/C","second compound 0.00949 µM, first compound 0.000949 µM",49.8%
same,"viability, T/C","second compound 0.00949 µM, first compound 0.003 µM",19.5%
same,"viability, T/C","second compound 0.00949 µM, first compound 0.00949 µM",12.2%
same,"viability, T/C","second compound 0.00949 µM, first compound 0.03 µM",9.39%
same,"viability, T/C","second compound 0.00949 µM, first compound 0.0949 µM",9.09%
same,"viability, T/C","second compound 0.00949 µM, first compound 0.3 µM",6.88%
same,"viability, T/C","second compound 0.03 µM, first compound 0.000949 µM",59.3%
same,"viability, T/C","second compound 0.03 µM, first compound 0.003 µM",21.2%
same,"viability, T/C","second compound 0.03 µM, first compound 0.00949 µM",12.3%
same,"viability, T/C","second compound 0.03 µM, first compound 0.03 µM",8.37%
same,"viability, T/C","second compound 0.03 µM, first compound 0.0949 µM",9.21%
same,"viability, T/C","second compound 0.03 µM, first compound 0.3 µM",7.47%
same,"viability, T/C","second compound 0.0949 µM, first compound 0.000949 µM",52.1%
same,"viability, T/C","second compound 0.0949 µM, first compound 0.003 µM",22%
same,"viability, T/C","second compound 0.0949 µM, first compound 0.00949 µM",9.91%
same,"viability, T/C","second compound 0.0949 µM, first compound 0.03 µM",7.89%
same,"viability, T/C","second compound 0.0949 µM, first compound 0.0949 µM",8.73%
same,"viability, T/C","second compound 0.0949 µM, first compound 0.3 µM",7.62%
same,"viability, T/C","second compound 0.3 µM, first compound 0.000949 µM",55.7%
same,"viability, T/C","second compound 0.3 µM, first compound 0.003 µM",22.5%
same,"viability, T/C","second compound 0.3 µM, first compound 0.00949 µM",9.85%
same,"viability, T/C","second compound 0.3 µM, first compound 0.03 µM",9.41%
same,"viability, T/C","second compound 0.3 µM, first compound 0.0949 µM",8.24%
same,"viability, T/C","second compound 0.3 µM, first compound 0.3 µM",6.74%
